This note sets out measurements from ChEMBL document CHEMBL1201862, “PubChem BioAssay data set” (2004).

Test systems include IGROV-1; SK-MEL-5; LOX IMVI; HL-60; A549; HOP-92; COLO 205; SF-295; BT-549; SF-539; UO-31; SR; OVCAR-5; MOLT-4; SF-268; UACC-257; M14; LXFL 529; NCI-H460; K562.
Experiment in all cases: NCI-60 cell line screen, 48 h

SMILES strings stand for the structures.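 Test compounds were applied to cells in 96-well plates for 48 hours at 5 doses. GI50 is the concentration that inhibits growth by half.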 Calls of active or inactive are those of the source. No stated cut-off is given here; in the data, active = GI50 up to about 1.1 µM and inactive = higher.

Turning to `N=c1nc2n(cc1F)[C@@H]1O[C@H](CO)[C@@H](O)[C@@H]1O2`, the GI50 is 47.4 µM (inactive) in the experiment on IGROV-1; 35.4 µM (inactive) in the experiment on SK-MEL-5; 1.06 µM (active) in the experiment with LOX IMVI; 0.317 µM (active) with HL-60; 0.335 µM (active) with A549; 11.3 µM (inactive) in the experiment with HOP-92. Besides, the GI50 with COLO 205 is 14 µM (inactive); in the experiment with SF-295 it was 49.9 µM (inactive); with BT-549, > 100 µM (inactive); in the experiment on SF-539 it was 53 µM (inactive); with UO-31 it was 24.6 µM (inactive); in the experiment on SR, 0.424 µM (active). For the same compound, the GI50 was > 100 µM (inactive) with OVCAR-5; 0.0336 µM (active) in the experiment on MOLT-4; 4.22 µM (inactive) in the experiment with SF-268; > 23.6 µM (inactive) with UACC-257; 1.45 µM (inactive) with M14; > 26.5 µM (inactive) in the experiment on LXFL 529. For the same compound, the figures for the GI50 in the experiment with NCI-H460 and with K562 were 0.286 µM (active) and 4.33 µM (inactive), respectively.
